Measurements: publication PMC12069340 (Frontiers in Cellular and Infection Microbiology, 2025)
Where a name gives a salt, the structure may show the parent alone.

system: A/PuertoRico/8/1934 (H1N1) virus; experiment: microbe, parasite or virus in culture; assay type: cell-based, influenza A virus; conditions: 20 µM

Compound	NA Inhibition (%)
CN1CCc2cc3c(cc2[C@H]1[C@@H]1OC(=O)c2c1ccc1c2OCO1)OCO3 [(+)-Bicuculline]	-11.3%
CN(C)CCOC(c1ccc(Cl)cc1)c1ccccn1.O=C(O)/C=C\C(=O)O (stereo not shown) [ArbinoxaMine Maleate]	29.8%
COc1ccc(C[C@@H](C)NC[C@H](O)c2ccc(O)c(NC=O)c2)cc1.COc1ccc(C[C@@H](C)NC[C@H](O)c2ccc(O)c(NC=O)c2)cc1.O=C(O)/C=C/C(=O)O [Formoterol Hemifumarate]	-23.1%
CCCCCCNC(=O)Nc1ccc(S(=O)(=O)Nc2ccc(CCNC[C@H](O)COc3ccc(O)cc3)cc2)cc1 [L755507]	-1.1%
Cc1c(Cl)c(OCC(=O)N2CCN(C)CC2)nc2sc(C(=O)NC3CC3)c(N)c12 [LY2119620]	19.0%
CCCN[C@H]1CCc2nc(N)sc2C1 [Pramipexole dihydrochloride monohydrate]	2.6
CCCN[C@H]1CCc2nc(N)sc2C1 [Pramipexole]	-25.0
Cc1ccsc1C(=CCCN1CCC[C@@H](C(=O)O)C1)c1sccc1C [Tiagabine hydrochloride]	19.9%
(+)-Matrine	9.9%
Almotriptan Malate	21.0%
Atipamezole hydrochloride	58.1%

same assay, conditions: Influenza A virus, H1N1, U-937, 48 h, read-out: NA Inhibition (%)

Compound	inhibition at 20 µM
CN(C)C(=O)C(CCN1CCC(O)(c2ccc(Cl)cc2)CC1)(c1ccccc1)c1ccccc1 [Loperamide HCl]	23.2%
C[C@](N)(Cc1ccc(O)c(O)c1)C(=O)O [Methyldopa]	-13.4%
COCCc1ccc(OCC(O)CNC(C)C)cc1 (stereo not shown) [Metoprolol Tartrate]	-24.2%
Nc1nc(CC(=O)Nc2ccc(CCNC[C@H](O)c3ccccc3)cc2)cs1 [Mirabegron]	-9.6%
CN[C@H](CC(=O)O)C(=O)O [NMDA (N-Methyl-D-aspartic acid), N-Methyl-D-aspartic acid]	-15.5%
COc1ccccc1N1CCN(CC(O)COc2cccc3ccccc23)CC1 (stereo not shown) [Naftopidil]	13.4%
O=C1CC[C@@]2(O)[C@H]3Cc4ccc(O)c5c4[C@@]2(CCN3CC2CC2)[C@H]1O5 [Naltrexone HCl]	10.1%
CCN(CC)CC#CCOC(=O)C(O)(c1ccccc1)C1CCCCC1 (stereo not shown) [Oxybutynin]	-3.6%
Cc1cc(C(C)(C)C)c(O)c(C)c1CC1=NCCN1 [Oxymetazoline hydrochloride]	-21%
OCCOCCN1CCN(C2=Nc3ccccc3Sc3ccccc32)CC1 [Quetiapine Fumarate]	-29.1%
C[C@H](Cc1cc2c(c(C(N)=O)c1)N(CCCO)CC2)NCCOc1ccccc1OCC(F)(F)F [Silodosin]	-41.7%
CNCC(O)c1ccc(O)cc1 (stereo not shown) [Synephrine]	12.3%
CC(C)(C)NCC(O)c1cc(O)cc(O)c1 (stereo not shown) [Terbutaline Sulfate]	39.1%
CC(C)(C)NC[C@H](O)COc1nsnc1N1CCOCC1 [Timolol Maleate]	33.2%
Clc1ccc2nsnc2c1NC1=NCCN1 [Tizanidine HCl]	-28.3%
CCC(COC(=O)c1cc(OC)c(OC)c(OC)c1)(c1ccccc1)N(C)C (stereo not shown) [Trimebutine]	43.7%

same assay, conditions: Influenza A virus, H1N1, U-937, 48 h; read-out: NA Inhibition (%)

Compound	inhibition at 20 µM
CCN1CCC[C@H]1CNC(=O)c1cc(S(N)(=O)=O)ccc1OC [Levosulpiride]	2.8%
CN1CCN2c3ccccc3Cc3ccccc3C2C1 (stereo not shown) [Mianserin HCl]	26.3%
CCOc1cc(N)c(Cl)cc1C(=O)NCC1CN(Cc2ccc(F)cc2)CCO1 (stereo not shown) [Mosapride Citrate]	32.4%
CNS(=O)(=O)CCc1ccc2[nH]cc(C3CCN(C)CC3)c2c1 [Naratriptan]	5.8%
Cc1cccc(C)c1NC(=O)CN1CCCC1=O [Nefiracetam]	6%
CN(C)C(=O)Oc1cccc([N+](C)(C)C)c1 [Neostigmine Bromide]	2%
CCN(Cc1ccc(Cl)nc1)/C(=C/[N+](=O)[O-])NC [Nitenpyram]	-32.4%
CN(C)CC/C=C1/c2ccccc2COc2ccc(CC(=O)O)cc21 [Olopatadine HCl]	-11.6%
Cc1nc2n(c(=O)c1CCN1CCC(c3noc4cc(F)ccc34)CC1)CCCC2O (stereo not shown) [Paliperidone]	9.3%
O=C1c2cccc3c2[C@H](CCC3)CN1[C@@H]1CN2CCC1CC2 [Palonosetron HCl]	-5.5%
Cc1cccn2c(=O)c(-c3nnn[nH]3)cnc12 [Pemirolast potassium]	-23.7%
N#Cc1ccccc1-c1cc(-c2ccccn2)cn(-c2ccccc2)c1=O [Perampanel]	-30.9%
CC(C)COc1ccc(CNC(=O)N(Cc2ccc(F)cc2)C2CCN(C)CC2)cc1 [Pimavanserin]	18.1%
COc1cc2nc(N3CCN(C(=O)c4ccco4)CC3)nc(N)c2cc1OC [Prazosin HCl]	-45.6%
CN(C)C(=O)Oc1ccc[n+](C)c1 [Pyridostigmine Bromide]	-34.1%
CNC(=C[N+](=O)[O-])NCCSCc1ccc(CN(C)C)o1 [Ranitidine]	-11.1%
CCN(C)C(=O)Oc1cccc([C@H](C)N(C)C)c1 [Rivastigmine Tartrate]	-0.2%
CN(C)CCc1c[nH]c2ccc(Cn3cncn3)cc12 [Rizatriptan Benzoate]	7.7%
C=CC[N+]1([C@H]2C[C@H]3[C@@H]4CC[C@H]5C[C@H](O)[C@@H](N6CCOCC6)C[C@]5(C)[C@H]4CC[C@]3(C)[C@H]2OC(C)=O)CCCC1 [Rocuronium Bromide]	16.7%
COc1cc2c(cc1OC)[C@@H]1Cc3ccc(OC)c(OC)c3CN1CC2 [Rotundine]	17.4%
O=C(O[C@H]1CN2CCC1CC2)N1CCc2ccccc2[C@@H]1c1ccccc1 [Solifenacin succinate]	22.6%
COc1cc2nc(N3CCN(C(=O)C4CCCO4)CC3)nc(N)c2cc1OC (stereo not shown) [Terazosin]	-47.2%
Cc1ccsc1C(=CCCN1CCC[C@@H](C(=O)O)C1)c1sccc1C [Tiagabine]	14.2%
c1ccc(CC2=NCCN2)cc1 [Tolazoline HCl]	14.5%
CN(C)CCN(Cc1ccccc1)c1ccccn1 [Tripelennamine HCl]	-0.2%
CN1[C@@H]2CC[C@H]1C[C@@H](OC(=O)c1c[nH]c3ccccc13)C2 [Tropisetron]	55.4%
CCCC(CCC)C(=O)O [Valproic acid sodium salt]	-18.5%
COc1ccc(C(CN(C)C)C2(O)CCCCC2)cc1 (stereo not shown) [Venlafaxine]	-1.3%
N#Cc1ccc2[nH]cc(CCCCN3CCN(c4ccc5oc(C(N)=O)cc5c4)CC3)c2c1 [Vilazodone HCl]	-49.6%

system: U937 cells; experiment: not given; conditions: 20 µM

Compound	Relative Viability (%)
CN1CCc2cc3c(cc2[C@H]1[C@@H]1OC(=O)c2c1ccc1c2OCO1)OCO3 [(+)-Bicuculline]	98.1%
CN(C)CCOC(c1ccc(Cl)cc1)c1ccccn1.O=C(O)/C=C\C(=O)O (stereo not shown) [ArbinoxaMine Maleate]	94.3%
COc1ccc(C[C@@H](C)NC[C@H](O)c2ccc(O)c(NC=O)c2)cc1.COc1ccc(C[C@@H](C)NC[C@H](O)c2ccc(O)c(NC=O)c2)cc1.O=C(O)/C=C/C(=O)O [Formoterol Hemifumarate]	121.9%
CCCCCCNC(=O)Nc1ccc(S(=O)(=O)Nc2ccc(CCNC[C@H](O)COc3ccc(O)cc3)cc2)cc1 [L755507]	100.1%
Cc1c(Cl)c(OCC(=O)N2CCN(C)CC2)nc2sc(C(=O)NC3CC3)c(N)c12 [LY2119620]	99.3%
(+)-Matrine	109.9%
Almotriptan Malate	114.2%
Atipamezole hydrochloride	119.4%

same assay, conditions: human, 20 µM

Compound	Relative Viability (%)
CCCN[C@H]1CCc2nc(N)sc2C1 [Pramipexole]	91.8
Cc1ccsc1C(=CCCN1CCC[C@@H](C(=O)O)C1)c1sccc1C [Tiagabine hydrochloride]	91.7%

system: not listed separately; experiment: in vitro; conditions: human, Relative Viability (%)

Compound	viability at 20 µM
CCN1CCC[C@H]1CNC(=O)c1cc(S(N)(=O)=O)ccc1OC [Levosulpiride]	104%
CN(C)C(=O)C(CCN1CCC(O)(c2ccc(Cl)cc2)CC1)(c1ccccc1)c1ccccc1 [Loperamide HCl]	116%
C[C@](N)(Cc1ccc(O)c(O)c1)C(=O)O [Methyldopa]	104%
COCCc1ccc(OCC(O)CNC(C)C)cc1 (stereo not shown) [Metoprolol Tartrate]	106%
CN1CCN2c3ccccc3Cc3ccccc3C2C1 (stereo not shown) [Mianserin HCl]	91.9%
Nc1nc(CC(=O)Nc2ccc(CCNC[C@H](O)c3ccccc3)cc2)cs1 [Mirabegron]	102%
CCOc1cc(N)c(Cl)cc1C(=O)NCC1CN(Cc2ccc(F)cc2)CCO1 (stereo not shown) [Mosapride Citrate]	112%
CN[C@H](CC(=O)O)C(=O)O [NMDA (N-Methyl-D-aspartic acid), N-Methyl-D-aspartic acid]	113%
COc1ccccc1N1CCN(CC(O)COc2cccc3ccccc23)CC1 (stereo not shown) [Naftopidil]	102%
O=C1CC[C@@]2(O)[C@H]3Cc4ccc(O)c5c4[C@@]2(CCN3CC2CC2)[C@H]1O5 [Naltrexone HCl]	107%
CNS(=O)(=O)CCc1ccc2[nH]cc(C3CCN(C)CC3)c2c1 [Naratriptan]	102%
Cc1cccc(C)c1NC(=O)CN1CCCC1=O [Nefiracetam]	105%
CN(C)C(=O)Oc1cccc([N+](C)(C)C)c1 [Neostigmine Bromide]	114%
CCN(Cc1ccc(Cl)nc1)/C(=C/[N+](=O)[O-])NC [Nitenpyram]	110%
CN(C)CC/C=C1/c2ccccc2COc2ccc(CC(=O)O)cc21 [Olopatadine HCl]	122%
CCN(CC)CC#CCOC(=O)C(O)(c1ccccc1)C1CCCCC1 (stereo not shown) [Oxybutynin]	104%
Cc1cc(C(C)(C)C)c(O)c(C)c1CC1=NCCN1 [Oxymetazoline hydrochloride]	113%
Cc1nc2n(c(=O)c1CCN1CCC(c3noc4cc(F)ccc34)CC1)CCCC2O (stereo not shown) [Paliperidone]	110%
O=C1c2cccc3c2[C@H](CCC3)CN1[C@@H]1CN2CCC1CC2 [Palonosetron HCl]	102%
Cc1cccn2c(=O)c(-c3nnn[nH]3)cnc12 [Pemirolast potassium]	108%
N#Cc1ccccc1-c1cc(-c2ccccn2)cn(-c2ccccc2)c1=O [Perampanel]	98.8%
CC(C)COc1ccc(CNC(=O)N(Cc2ccc(F)cc2)C2CCN(C)CC2)cc1 [Pimavanserin]	113%
CCCN[C@H]1CCc2nc(N)sc2C1 [Pramipexole dihydrochloride monohydrate]	100%

Compound	viability at 20 µM
COc1cc2nc(N3CCN(C(=O)c4ccco4)CC3)nc(N)c2cc1OC [Prazosin HCl]	76.9%
CN(C)C(=O)Oc1ccc[n+](C)c1 [Pyridostigmine Bromide]	88.2%
OCCOCCN1CCN(C2=Nc3ccccc3Sc3ccccc32)CC1 [Quetiapine Fumarate]	104%
CNC(=C[N+](=O)[O-])NCCSCc1ccc(CN(C)C)o1 [Ranitidine]	109%
CCN(C)C(=O)Oc1cccc([C@H](C)N(C)C)c1 [Rivastigmine Tartrate]	116%
CN(C)CCc1c[nH]c2ccc(Cn3cncn3)cc12 [Rizatriptan Benzoate]	106%
C=CC[N+]1([C@H]2C[C@H]3[C@@H]4CC[C@H]5C[C@H](O)[C@@H](N6CCOCC6)C[C@]5(C)[C@H]4CC[C@]3(C)[C@H]2OC(C)=O)CCCC1 [Rocuronium Bromide]	106%
COc1cc2c(cc1OC)[C@@H]1Cc3ccc(OC)c(OC)c3CN1CC2 [Rotundine]	112%
C[C@H](Cc1cc2c(c(C(N)=O)c1)N(CCCO)CC2)NCCOc1ccccc1OCC(F)(F)F [Silodosin]	115%
O=C(O[C@H]1CN2CCC1CC2)N1CCc2ccccc2[C@@H]1c1ccccc1 [Solifenacin succinate]	102%
CNCC(O)c1ccc(O)cc1 (stereo not shown) [Synephrine]	90.5%
COc1cc2nc(N3CCN(C(=O)C4CCCO4)CC3)nc(N)c2cc1OC (stereo not shown) [Terazosin]	87.8%
CC(C)(C)NCC(O)c1cc(O)cc(O)c1 (stereo not shown) [Terbutaline Sulfate]	101%
Cc1ccsc1C(=CCCN1CCC[C@@H](C(=O)O)C1)c1sccc1C [Tiagabine]	95.7%
CC(C)(C)NC[C@H](O)COc1nsnc1N1CCOCC1 [Timolol Maleate]	91.2%
Clc1ccc2nsnc2c1NC1=NCCN1 [Tizanidine HCl]	78.9%
c1ccc(CC2=NCCN2)cc1 [Tolazoline HCl]	86%
CCC(COC(=O)c1cc(OC)c(OC)c(OC)c1)(c1ccccc1)N(C)C (stereo not shown) [Trimebutine]	108%
CN(C)CCN(Cc1ccccc1)c1ccccn1 [Tripelennamine HCl]	105%
CN1[C@@H]2CC[C@H]1C[C@@H](OC(=O)c1c[nH]c3ccccc13)C2 [Tropisetron]	80.9%
CCCC(CCC)C(=O)O [Valproic acid sodium salt]	113%
COc1ccc(C(CN(C)C)C2(O)CCCCC2)cc1 (stereo not shown) [Venlafaxine]	93.2%
N#Cc1ccc2[nH]cc(CCCCN3CCN(c4ccc5oc(C(N)=O)cc5c4)CC3)c2c1 [Vilazodone HCl]	98.9%
